Measurements as given in ChEMBL document CHEMBL3351663, “Discovery of acylurea isosteres of 2-acylaminothiadiazole in the azaxanthene series of glucocorticoid receptor agonists” (Bioorg Med Chem Lett, 2014).

Columns and labels:
[1] = Half life in human liver microsomes
Cytochrome P450 2C19 = Cytochrome P450 2C19 (Homo sapiens, UniProt P33261); test: Inhibition of CYP2C19 (unknown origin); format: ADME
Cytochrome P450 2C8 = target: T1, Cytochrome P450 2C8 (Homo sapiens, UniProt P10632); test: Inhibition of CYP2C8 (unknown origin); format: ADME
T1 sequence (P10632 whole entry): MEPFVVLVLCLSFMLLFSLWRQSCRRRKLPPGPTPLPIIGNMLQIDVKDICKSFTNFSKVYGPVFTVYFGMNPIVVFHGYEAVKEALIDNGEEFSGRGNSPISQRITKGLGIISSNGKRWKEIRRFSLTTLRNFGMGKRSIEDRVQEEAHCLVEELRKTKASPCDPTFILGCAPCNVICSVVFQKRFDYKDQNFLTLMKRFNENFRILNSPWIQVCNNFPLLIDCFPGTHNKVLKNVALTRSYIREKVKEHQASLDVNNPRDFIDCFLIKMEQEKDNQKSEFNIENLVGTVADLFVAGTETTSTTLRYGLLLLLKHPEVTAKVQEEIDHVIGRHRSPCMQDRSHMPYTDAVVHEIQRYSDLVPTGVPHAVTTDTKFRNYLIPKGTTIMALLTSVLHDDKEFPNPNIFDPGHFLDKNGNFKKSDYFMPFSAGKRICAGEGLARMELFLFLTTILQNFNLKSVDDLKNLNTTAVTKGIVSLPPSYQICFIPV

Progesterone receptor = target: T2, Progesterone receptor (Homo sapiens, UniProt P06401); test: Binding affinity to progesterone receptor (unknown origin) by fluorescence polarization assay
T2 sequence (P06401 whole entry): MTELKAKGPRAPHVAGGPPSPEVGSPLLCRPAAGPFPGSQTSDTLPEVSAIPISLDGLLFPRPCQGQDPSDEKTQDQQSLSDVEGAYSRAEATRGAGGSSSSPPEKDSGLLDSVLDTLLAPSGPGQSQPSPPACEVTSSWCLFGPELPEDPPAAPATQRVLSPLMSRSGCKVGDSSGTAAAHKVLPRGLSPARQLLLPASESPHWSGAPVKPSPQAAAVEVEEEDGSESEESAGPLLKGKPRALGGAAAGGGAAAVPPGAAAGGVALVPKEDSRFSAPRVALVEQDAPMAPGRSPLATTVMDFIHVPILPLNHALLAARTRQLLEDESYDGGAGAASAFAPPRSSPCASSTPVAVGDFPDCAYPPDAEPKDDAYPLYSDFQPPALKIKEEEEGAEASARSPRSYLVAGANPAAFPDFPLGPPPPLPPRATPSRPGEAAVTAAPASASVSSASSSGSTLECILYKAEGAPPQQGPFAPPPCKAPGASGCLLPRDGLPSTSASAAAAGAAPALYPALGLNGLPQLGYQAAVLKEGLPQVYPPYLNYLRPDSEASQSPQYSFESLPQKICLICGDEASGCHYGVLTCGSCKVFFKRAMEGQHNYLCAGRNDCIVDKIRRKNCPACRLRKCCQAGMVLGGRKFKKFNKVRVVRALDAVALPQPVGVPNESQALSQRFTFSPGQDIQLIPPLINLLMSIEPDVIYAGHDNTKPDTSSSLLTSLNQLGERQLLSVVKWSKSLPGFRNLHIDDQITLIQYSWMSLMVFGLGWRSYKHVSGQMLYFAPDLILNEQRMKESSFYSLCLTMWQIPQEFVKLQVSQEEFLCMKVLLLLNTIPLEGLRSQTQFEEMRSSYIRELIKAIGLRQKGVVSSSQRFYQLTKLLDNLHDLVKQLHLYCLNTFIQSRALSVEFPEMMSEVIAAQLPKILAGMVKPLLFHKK

Glucocorticoid receptor = target: T3, Glucocorticoid receptor (Homo sapiens, UniProt P04150); test: Agonist activity at glucocorticoid receptor in human HeLa cells assessed as NP-1 transactivation by luciferase reporter gene assay; format: cell-based
T3 sequence (P04150 whole entry): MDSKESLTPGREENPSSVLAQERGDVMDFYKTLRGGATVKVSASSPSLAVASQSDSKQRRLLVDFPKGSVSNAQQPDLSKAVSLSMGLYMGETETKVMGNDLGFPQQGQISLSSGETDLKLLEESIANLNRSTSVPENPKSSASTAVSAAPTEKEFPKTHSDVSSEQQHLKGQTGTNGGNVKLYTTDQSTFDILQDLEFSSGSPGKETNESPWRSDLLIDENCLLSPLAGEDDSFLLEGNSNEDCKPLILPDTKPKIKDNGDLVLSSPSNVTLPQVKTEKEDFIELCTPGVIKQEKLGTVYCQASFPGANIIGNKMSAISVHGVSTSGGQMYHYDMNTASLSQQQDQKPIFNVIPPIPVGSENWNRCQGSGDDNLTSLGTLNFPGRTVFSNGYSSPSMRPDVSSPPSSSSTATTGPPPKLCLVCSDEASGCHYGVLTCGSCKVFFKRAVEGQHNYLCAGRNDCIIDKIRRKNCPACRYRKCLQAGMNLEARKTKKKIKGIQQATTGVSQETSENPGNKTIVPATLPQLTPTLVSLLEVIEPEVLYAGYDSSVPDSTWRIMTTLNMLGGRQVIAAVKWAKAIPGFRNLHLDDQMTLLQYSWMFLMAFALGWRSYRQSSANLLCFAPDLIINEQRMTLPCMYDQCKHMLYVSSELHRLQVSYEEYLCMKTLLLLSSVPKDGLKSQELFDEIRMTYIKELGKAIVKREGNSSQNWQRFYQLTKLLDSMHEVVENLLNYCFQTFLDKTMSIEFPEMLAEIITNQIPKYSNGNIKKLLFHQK

Cytochrome P450 2C19, sequence (P33261 whole entry): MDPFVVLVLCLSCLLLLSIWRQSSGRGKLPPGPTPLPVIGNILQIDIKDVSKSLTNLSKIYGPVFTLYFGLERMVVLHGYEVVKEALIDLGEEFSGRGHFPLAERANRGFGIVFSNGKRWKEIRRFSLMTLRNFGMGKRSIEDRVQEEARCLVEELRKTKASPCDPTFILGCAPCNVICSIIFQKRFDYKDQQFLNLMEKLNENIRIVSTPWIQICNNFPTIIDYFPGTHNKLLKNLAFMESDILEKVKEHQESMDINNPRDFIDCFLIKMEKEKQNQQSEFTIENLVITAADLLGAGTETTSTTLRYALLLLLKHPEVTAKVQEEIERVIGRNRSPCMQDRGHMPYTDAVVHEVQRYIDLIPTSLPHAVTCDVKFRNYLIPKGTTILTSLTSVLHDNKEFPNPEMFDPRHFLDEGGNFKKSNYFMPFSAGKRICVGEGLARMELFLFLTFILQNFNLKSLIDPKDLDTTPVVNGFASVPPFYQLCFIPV

Row | half-life ([1]; liver microsomes) [min] | IC50 (Cytochrome P450 2C19) [µM] | IC50 (Cytochrome P450 2C8) [µM] | Ki (Progesterone receptor) [µM] | EC50 (Glucocorticoid receptor) [µM] | half-life ([1]; microsomes) [min] | SMILES
1 | 9.1 | 1.3 | 3.7 | 0.0449 | 0.0108 |  | CC(C)(C(=O)Nc1nncs1)[C@@H]1c2ccc(-c3ccc(C(=O)N4CCOCC4)cc3)nc2Oc2c(F)cccc21
2 |  | 11 | 8.9 | 0.0528 | 0.0055 | 41 | CC(C)(C(=O)NC(N)=O)[C@@H]1c2ccc(-c3ccc(C(=O)N4CCOCC4)cc3)nc2Oc2c(F)cccc21
